In PubChem BioAssay (NCI):
Where “and” joins values, the source holds several entries; their conditions need not be identical. Equal entries are not always repeated.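 Cultured in 96-well plates, cells were exposed to test compound for 48 hours across five concentrations. Abbreviation: GI50, concentration required for 50% inhibition of growth. TGI: total growth inhibition.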

Columns and labels:
Assay in all cases: NCI tumour cell line growth inhibition, 48 h
[1] = system: ACHN renal
[2] = system: KM12 colon
[3] = system: MOLT-4 leukemia
[4] = system: RPMI-8226 leukemia
[5] = system: RXF 393 renal
[6] = system: SF-295 CNS
[7] = system: SK-MEL-28 melanoma
[8] = system: SNB-19 CNS
[9] = system: SNB-75 CNS
[10] = system: T-47D breast

Structure (SMILES)	GI50 [1]	TGI [1]	GI50 [2]	TGI [2]	GI50 [3]	TGI [3]	GI50 [4]	TGI [4]	GI50 [5]	TGI [5]	GI50 [6]	TGI [6]	GI50 [7]	TGI [7]	GI50 [8]	TGI [8]	GI50 [9]	TGI [9]	GI50 [10]	TGI [10]
COc1ccccc1CNCCCN1C(=O)c2ccc3c4c(ccc(c24)C1=O)C(=O)N(CCCNCCCCNCCCCN)C3=O	2.82 µM	> 33.9 µM	2.42 µM	6.91 µM	3.23 µM	19.5 µM	1.83 µM	9.62 µM	2.09 µM	10.1 µM	2.63 µM	11 µM	2.1 µM	5.9 µM	2.72 µM	10.1 µM	1.3 µM	3.68 µM	0.782 µM	3.14 µM
CCCCCCCCCCCC1=NC(C)(C)CN1CCO	9.05 µM	23.5 µM	2.85 µM	7.57 µM	3.23 µM	9.94 µM	2.3 µM	7.46 µM	3.94 µM	10.5 µM	2.98 µM	9.85 µM	2.12 µM	4.35 µM	15.1 µM	30.9 µM	7.93 µM	21.6 µM	4.04 µM	16.9 µM
CC(C)c1ccc2c(N=Nc3ccc(S(N)(=O)=O)cc3)c(O)[nH]c2c1	> 14 µM	> 25 µM	1.24 µM	> 25 µM	> 25 µM	> 25 µM	> 25 µM	> 25 µM	4.41 µM	> 16 µM	11.2 µM	> 25 µM	> 25 µM	> 25 µM	> 14.5 µM	> 25 µM	4.72 µM	10.3 µM	> 15.3 µM	> 25 µM
C=C1C(=O)O[C@H]2[C@H]1CC/C(C=Nc1ccc(C(F)(F)F)cc1N)=C\CC[C@@]1(C)O[C@@H]21	6.9 µM	22.1 µM	13.4 µM	28.3 µM	3.06 µM	9.67 µM	3.24 µM	10.1 µM	2.87 µM	9.22 µM	13.1 µM	26.3 µM	5.85 µM	20.2 µM	11.5 µM	26.2 µM	10.9 µM	23.2 µM	3.31 µM	22.1 µM
COc1ccc2nc3cccc([N+](=O)[O-])c3c(NCCN(CCO)CCO)c2c1	0.0142 µM	0.0495 µM	0.0367 µM	0.202 µM	0.0161 µM	0.136 µM	0.0155 µM	0.102 µM	0.0155 µM	0.032 µM	0.0304 µM	0.337 µM	0.0444 µM	0.414 µM	0.129 µM	1.45 µM	0.0747 µM	0.225 µM	0.0913 µM	1.01 µM
C#CC[C@@H]1C[C@]2(C)[C@H]3CC[C@@H]4[C@H]5[C@H](C(=C)C)CC[C@]5(C(=O)O)CC[C@@]4(C)[C@]3(C)CC[C@H]2C(C)(C)[C@H]1O	1.5 µM	3.18 µM	1.64 µM	4.83 µM	3.16 µM	> 100 µM	1.68 µM	14.7 µM	1.7 µM	3.52 µM	1.45 µM	3.17 µM	2.75 µM	7.6 µM	3.04 µM	13.4 µM	1.95 µM	4.12 µM	1.79 µM	4.66 µM
CC1(C)CC[C@]2(C(=O)n3ccnc3)CC[C@]3(C)[C@H](C(=O)C=C4[C@@]5(C)C=C(C#N)C(=O)C(C)(C)[C@@H]5CC[C@]43C)[C@@H]2C1	< 0.0114 µM	< 0.0172 µM	< 0.0104 µM	< 0.0199 µM	< 0.01 µM	< 0.01 µM	< 0.01 µM	< 0.01 µM	0.0114 µM	0.0536 µM	0.0152 µM	0.0975 µM	< 0.0155 µM	0.0848 µM	–	–	0.0236 µM	0.187 µM	0.0446 µM	0.395 µM
C=C1C(=O)O[C@H]2[C@H]1CC/C(COC(=O)/C=C\C(=O)NCc1ccc(Cn3c(=O)sn(-c4ccc(OC)cc4)c3=O)cc1)=C\CC[C@@]1(C)O[C@@H]21	0.46 µM	1.07 µM	0.884 µM	1.81 µM	0.584 µM	9.78 µM	0.313 µM	2.43 µM	0.51 µM	1.17 µM	3.84 µM	10.1 µM	0.825 µM	1.55 µM	0.879 µM	1.78 µM	0.407 µM	1.23 µM	0.839 µM	2.02 µM
Fc1ccc(CNc2c3ccccc3nc3ccccc23)cc1	1.93 µM	5.64 µM	3.27 µM	13.6 µM	2.9 µM	10.8 µM	2.03 µM	5.79 µM	2.07 µM	5.4 µM	2.9 µM	11.1 µM	3.27 µM	11.6 µM	3.66 µM	15.4 µM	2.01 µM	10.8 µM	2.53 µM	10 µM
C[As](C)Sc1ccnc(S[As](C)C)n1	1.85 µM	15.1 µM	9.52 µM	> 51.9 µM	1.43 µM	–	1.12 µM	4.61 µM	3.2 µM	20.1 µM	27.2 µM	> 59.2 µM	2.67 µM	19.7 µM	14.7 µM	> 56.2 µM	12.7 µM	> 100 µM	22.9 µM	> 100 µM
CCOCCc1c(O)nc(SC)[nH]c1=O	> 100 µM	> 100 µM	> 100 µM	> 100 µM	> 100 µM	> 100 µM	> 100 µM	> 100 µM	> 100 µM	> 100 µM	> 100 µM	> 100 µM	> 100 µM	> 100 µM	> 100 µM	> 100 µM	> 100 µM	> 100 µM	> 100 µM	> 100 µM
O=C(O)CNC(=O)c1ccccc1O	–	> 100 µM	–	> 100 µM	–	> 100 µM	–	> 100 µM	–	> 100 µM	–	> 100 µM	–	> 100 µM	–	> 100 µM	–	> 100 µM	–	> 100 µM
Cn1cc(C2=C(c3c4n(c5ccccc35)CC(CN)C4)C(=O)NC2=O)c2ccccc21 (stereo unspecified)	3.16 µM	12.3 µM	3.46 µM	9.22 µM	3.4 µM	15 µM	4.57 µM	11.1 µM	2.87 µM	6.19 µM	3.54 µM	8.56 µM	3.37 µM	7.01 µM	5.39 µM	15.3 µM	0.246 µM	2.93 µM	5.26 µM	13.5 µM
O=C(N/N=C/c1coc2ccc(Cl)cc2c1=O)c1ccncc1	29.9 µM	> 100 µM	58.4 µM	> 100 µM	21.1 µM	71.2 µM	16.6 µM	> 100 µM	65.9 µM	> 100 µM	50.1 µM	> 100 µM	> 100 µM	> 100 µM	> 100 µM	> 100 µM	49.4 µM	> 100 µM	> 100 µM	> 100 µM
CN(C)c1ccc(/C=C(\C#N)c2cc3ccccc3n2C)cc1	0.386 µM	> 100 µM	0.211 µM	> 100 µM	0.32 µM	> 100 µM	0.351 µM	> 100 µM	0.133 µM	0.549 µM	0.0787 µM	–	1.07 µM	> 100 µM	0.357 µM	> 100 µM	0.0562 µM	1.75 µM	0.204 µM	> 100 µM
NC(=O)c1nnn(Cc2cc(Cl)c(C(=O)c3ccc(Cl)cc3)c(Cl)c2)c1N	–	> 9.09 µM and 35.1 µM	> 9.09 µM	> 9.09 µM and 35 µM	> 9.09 µM	> 90.7 µM	> 9.09 µM	> 70.6 µM	> 9.09 µM	> 9.09 µM and 39.3 µM	–	> 9.09 µM and 34 µM	> 9.09 µM	> 9.09 µM and 44.6 µM	> 9.09 µM	> 9.09 µM and 30.5 µM	> 9.09 µM	> 9.09 µM and 48 µM	–	> 51.6 µM
CCCn1cc(C2=C(c3cn(C)c4ccccc34)C(=O)NC2=O)c2ccccc21	2.04 µM	7.45 µM	1.14 µM	7.92 µM	2.45 µM	> 17.8 µM	1.95 µM	11.6 µM	0.663 µM	2.87 µM	0.715 µM	3.15 µM	2.09 µM	8.69 µM	5.58 µM	> 25 µM	0.458 µM	2.09 µM	0.897 µM	7.62 µM
C=CCCC(O)c1ccc(C(O)CCCCCCCCCCCC)o1 (stereo unspecified)	15.8 µM	29.2 µM	21.7 µM	42.8 µM	7.16 µM	38.3 µM	27.1 µM	> 100 µM	16 µM	33.2 µM	36.7 µM	> 100 µM	27.1 µM	65.5 µM	51.6 µM	> 100 µM	33.3 µM	> 100 µM	34.3 µM	> 100 µM
O=C(Nc1ncc(Cc2ccccc2)s1)c1ccc2c(c1)OCCO2	0.0676 µM	> 100 µM	0.0396 µM	32.9 µM	0.146 µM	> 100 µM	0.0587 µM	> 100 µM	0.0231 µM	0.0715 µM	0.0304 µM	1.49 µM	0.0823 µM	> 100 µM	0.0549 µM	> 38 µM	0.0277 µM	1.66 µM	0.0523 µM	> 100 µM
O=C(O)c1cc(N/C=C2\C(=O)c3ccccc3OC2O)ccc1O (stereo unspecified)	28.3 µg/mL	82.7 µg/mL	25.7 µg/mL	51.6 µg/mL	15.3 µg/mL	72 µg/mL	2.24 µg/mL	7.82 µg/mL	18.5 µg/mL	40.1 µg/mL	18.1 µg/mL	52.8 µg/mL	31.8 µg/mL	113 µg/mL	19.9 µg/mL	67.5 µg/mL	25.2 µg/mL	129 µg/mL	5.34 µg/mL	46.2 µg/mL
O=C(CSc1nc2ccc([N+](=O)[O-])cc2[nH]1)Nc1cccc(Cl)c1	2.46 µM	8.57 µM	3.1 µM	13.8 µM	3.2 µM	40.4 µM	1.66 µM	> 27.8 µM	2.39 µM	8.49 µM	2.07 µM	6.8 µM	2.68 µM	13.1 µM	2.92 µM	15.9 µM	1.85 µM	7.81 µM	1.55 µM	18.9 µM
COc1ccc(-c2cn(-c3ccc(Cl)cc3)c(=S)[nH]2)cc1OC	9.53 µM	> 100 µM	23.8 µM	> 100 µM	> 100 µM	> 100 µM	4.43 µM	92.3 µM	2.98 µM	> 100 µM	6.05 µM	> 100 µM	22.3 µM	> 100 µM	–	–	16.4 µM	60.3 µM	6.09 µM	> 100 µM
O=C(/C=C/C=C/c1ccccc1)c1ccc(Nc2nc(Nc3ccccc3)nc(Nc3ccccc3)n2)cc1	> 100 µM	> 100 µM	57.9 µM	> 100 µM	9.89 µM	35.8 µM	4.12 µM	> 100 µM	1.62 µM	47.5 µM	32.5 µM	> 100 µM	46.9 µM	> 100 µM	> 100 µM	> 100 µM	17.8 µM	> 100 µM	4.58 µM	> 100 µM
O=S(=O)(O)c1ccc(Cl)cc1.[Cd]	> 100 µM	> 100 µM	73.4 µM	> 100 µM	79.2 µM	> 100 µM	32.1 µM	> 100 µM	27.3 µM	79.3 µM	> 100 µM	> 100 µM	> 100 µM	> 100 µM	> 100 µM	> 100 µM	37.7 µM	97.2 µM	27 µM	53.8 µM
CCOC(=O)C1=C(N)Oc2c(sc3c(C)cccc23)C1c1ccc(Cl)cc1 (stereo unspecified)	3.17 µM	17.6 µM	1.62 µM	13.3 µM	3.58 µM	19.7 µM	3.26 µM	13.1 µM	1.45 µM	4.47 µM	1.89 µM	4.26 µM	10.3 µM	23.6 µM	3.71 µM	16 µM	0.643 µM	7.79 µM	2.79 µM	18.8 µM
